Laboratory results taken from PMC8646019, “Azvudine is a thymus-homing anti-SARS-CoV-2 drug effective in treating COVID-19 patients” (Signal Transduction and Targeted Therapy, 2021).
“And” between values parts separate entries of the source, which are not always exact repeats. Equal entries are not always repeated. “Also recorded” adds a separate entry of the source.

Tests used:
SARS-CoV-2 [1] = assay: SARS-CoV-2 infected rhesus macaques treated with FNC (viral load, blood tests, histology, X-ray); type: in vivo
Description: RM monkeys were used to learn whether FNC could inhibit SARS-CoV-2 in vivo. In this experiment, eight monkeys were first infected with SARS-CoV-2 using the protocol established previously with an infection dose of 10^6 pfu per monkey.[18] Among the eight animals, four were untreated (as vehicle control; two male and two female) and four were treated with FNC (0.07 mg/kg, qd, oral; two male and two female) 12 h post-infection. The treatment continued for 7 days from Day 1 to Day 7. The experiment was terminated on Day 8 after viral infection. Clinical manifestations, blood indications, and viral load in swabs and blood samples was monitored during the course, and organs were examined after euthanasia at 8 dpi. The experimental protocol is shown in Supplementary Fig. 5.
Fig. 3 FNC inhibited SARS-CoV-2 and treated COVID-19 in vivo. Eight RM monkeys were inoculated with SARS-CoV-2, followed by vehicle or FNC treatment 12 h post infection and continued for 7 days (see Materials and methods). […] The regions of interest (ROI) are boxed in white, and their magnified photos are shown below. Scale bars, 500 µm (up) and 20 µm (below). c White blood cells (WBC), neutrophil granulocytes (NG), monocytes (MC), and platelets basically remained stable by FNC after SARS-CoV-2 infection. d FNC increased the percent of lymphocytes, alleviated CRP production, and protected the heart and liver functions. Data are presented as mean ± SEM (n = 4); *p < 0.05, infected monkeys in FNC group vs. infected monkeys in the untreated group, by Mann–Whitney U test. CRP C reaction protein, AST aspartate aminotransferase TEXT PRINTED IN THE PICTURE: (a) FNC: Lung Viral load (copies /g): ND (17031); Lung Viral load (copies /g): ND (17374); Thymus Viral load (copies /g): ND (17017); Thymus Viral load (copies /g): ND (17031); Thymus Viral load (copies /g): ND (17368); Thymus Viral load (copies /g): ND (17374) DOUBTS OF THE COPYIST ABOUT THIS PICTURE: Panel a: the only printed results are "ND" labels over single animal numbers. The red ones (FNC group) are given. The black ND labels of the untreated group (Lung 17032; Thymus 17032, 17041) are left out because no substance was given. / Panel d: 0.083 printed in the CRP and AST plots is taken as a p value and left out.
The rhesus macaques’ experiment was done by following the method described before^1,2. Briefly, healthy rhesus macaques (4 male and 4 female, 3-4 years old) were used for the study. SARS-CoV-2 was from the Center of Diseases Control, Guangdong, China, and amplified in the Vero-E6 cells. Animal groups and experimental schedules were outlined in Fig S4. We inoculated rhesus macaques with 10^6 pfu/ml SARS-CoV-2 intratracheally (0.5ml) and intranasally (0.5ml). FNC (0.07mg/kg, qd, orally) was given 12 h after viral inoculation and continued for 7 days. The animals were monitored daily for physical examination. Chest X-ray radiograph of the anaesthetized monkeys was done with 55-75v and 8-12.5mA with the Mobile digital medical X-ray photography system (MobileCooper, Browiner China).
Quantification of viral genome in swabs and tissue samples was done as described before^1. Viral genome copy in samples were quantified with real time RT-PCR, using TaqMan Fast Virus 1-Step Master Mix (ThermoFisher, US) and conducted on the CFX384 Touch Real-Time PCR Detection System (Biorad, US). Purified RNA of SARS-CoV-2 served as a standard curve. The operation conditions of RT-PCR were set as following: 25℃ for 2min, 50℃ for 15min, 95℃ for 2min, then 40 cycles at 95℃ 5sec and 60℃ 31sec. Primers/probe specific for the NP gene were synthesized based on sequences from China CDC: Target-2-F:GGGGAA […],
By the end of the experiment, major organs of the monkeys were taken and checked with naked eye examination. Tests for blood biochemistry and hematology indexes, including lymphocyte analysis and organ function assays, were done based on previous reports^1,2. […]

PBMC = type: in vivo, rhesus macaques; conditions: n = 4 for each group, with time, vs untreated
viral replication = conditions: FNC compound itself, not phosphorylated; cited from earlier work
SARS-CoV-2 [2] = assay: Clinical trial of FNC on compassionate use in COVID-19 patients
[3] = FNC-treated monkeys vs untreated
[4] = drug combination no: FNC only, N = 15
[5] = drug combination no: FNC only, N = 15, mean ± SD
[6] = drug combination yes: FNC plus TCM or/and other antivirals, N = 16, mean ± SD
[7] = individual COVID-19 patient (one per table line)
[8] = moderate COVID-19, n = 26, mean ± SD
[9] = severe COVID-19, n = 5, mean ± SD

[N-]=[N+]=N[C@]1(CO)O[C@@H](n2ccc(N)nc2=O)[C@@H](F)[C@@H]1O [FNC, 2′-deoxy-2′-β-fluoro-4′-azidocytidine]
CK and AST levels (SARS-CoV-2 [1]; [3]): decreased CK and AST levels, though insignificantly | body temperature and body weight changes after SARS-CoV-2 infection (SARS-CoV-2 [1]; [3]): not different | lesions in the lung (HE staining) (SARS-CoV-2 [1]; RM monkeys, FNC 0.07 mg/kg qd oral vs untreated): reduced the lesions substantially | viral load in nasal swabs, blood, lungs and thymus (SARS-CoV-2 [1]; RM monkeys, FNC 0.07 mg/kg qd oral, 7 days, vs untreated): significantly reduced viral load | ground-glass opacities in chest X-ray (SARS-CoV-2 [1]; RM monkeys, FNC 0.07 mg/kg, qd, orally): lessened ground-glass opacities | viral load in the thymus (SARS-CoV-2 [1]; four virus (+) monkeys treated with FNC, termination of the experiment): negative | percentage of CD3+, CD4+, and CD8+ cells in the peripheral blood (PBMC): increased | inhibiting viral replication in vitro (viral replication): almost inactive | Recovery rate (SARS-CoV-2 [2]; all 31 COVID-19 patients): 100% (31/31) | Time from FNC treatment to SARS-CoV-2 negative conversion, median (SARS-CoV-2 [2]; all 31 COVID-19 patients): 3.0 days | Time from FNC treatment to SARS-CoV-2 negative conversion, range (SARS-CoV-2 [2]; all 31 COVID-19 patients): 1 to 9 days | Time from FNC treatment to discharge from the hospital, average (SARS-CoV-2 [2]; all 31 COVID-19 patients): 9.00 ± 4.93 days and 9.00 days | Time from FNC treatment to discharge from the hospital, median (SARS-CoV-2 [2]; all 31 COVID-19 patients): 9.0 days | Time from FNC treatment to discharge from the hospital, range (SARS-CoV-2 [2]; all 31 COVID-19 patients): 2 to 25 days | deaths in the trial (SARS-CoV-2 [2]; all 31 COVID-19 patients): No patients died | hospital discharge rate (SARS-CoV-2 [2]; all 31 COVID-19 patients): 100% | viral ribonucleic acid negative conversion, share of patients (SARS-CoV-2 [2]; all 31 COVID-19 patients): 100% | Time from FNC treatment to SARS-CoV-2 negative conversion, average (SARS-CoV-2 [2]; all 31 COVID-19 patients, oral FNC 5 mg qd): 3.29 ± 2.22 days and 3.29 days | Recovery rate (SARS-CoV-2 [2]; [4]): 100% (16/16) | Side effect (SARS-CoV-2 [2]; [4]): 13.3% (2/15) | Time from FNC treatment to SARS-CoV-2 negative conversion (SARS-CoV-2 [2]; [5]): 2.13 ± 1.30 days | Time from FNC treatment to discharge from the hospital (SARS-CoV-2 [2]; [5]): 8.67 ± 6.24 days | Recovery rate (SARS-CoV-2 [2]; drug combination yes, N = 16): 100% (16/16) | Side effect (SARS-CoV-2 [2]; drug combination yes, N = 16): 18.8% (3/16) | Time from FNC treatment to SARS-CoV-2 negative conversion (SARS-CoV-2 [2]; [6]): 4.38 ± 2.39 days | Time from FNC treatment to discharge from the hospital (SARS-CoV-2 [2]; [6]): 9.31 ± 3.46 days | Side effect (SARS-CoV-2 [2]; [7]): Dizziness (fist day); also recorded: Low counts of Platelet and Fibrinogen (first day); also recorded: Dizziness, Nausea, Vomit (first day); also recorded: Dizziness, Insomnia, Vomit (first day) | Time from FNC treatment to discharge from the hospital (SARS-CoV-2 [2]; [7]): 6 days and 7 days and 5 days | Time from FNC treatment to SARS-CoV-2 negative conversion (SARS-CoV-2 [2]; individual COVID-19 patient (one per table line; dosage and combination treatment as in the line)): 6 days | Recovery rate (SARS-CoV-2 [2]; moderate COVID-19, n = 26): 100% (26/26) | Time from FNC treatment to SARS-CoV-2 negative conversion (SARS-CoV-2 [2]; [8]): 3.35 ± 2.13 days | Time from FNC treatment to discharge from the hospital (SARS-CoV-2 [2]; [8]): 9.65 ± 4.91 days | Recovery rate (SARS-CoV-2 [2]; self-controlled comparison, 11 patients): 100% (11/11) | Time from drug treatment to SARS-CoV-2 negative conversion (SARS-CoV-2 [2]; self-controlled comparison, 11 patients first treated with known antivirals, then FNC alone, mean ± SD): 1.73 ± 0.79 days | Time from FNC treatment to discharge from the hospital (SARS-CoV-2 [2]; self-controlled comparison, 11 patients, mean ± SD): 9.09 ± 7.27 days | Recovery rate (SARS-CoV-2 [2]; severe COVID-19, n = 5): 100% (5/5) | Side effect (SARS-CoV-2 [2]; severe COVID-19, n = 5): 40% (2/5) | Time from FNC treatment to SARS-CoV-2 negative conversion (SARS-CoV-2 [2]; [9]): 3.00 ± 2.92 days | Time from FNC treatment to discharge from the hospital (SARS-CoV-2 [2]; [9]): 5.60 ± 3.78 days
